Laboratory results as given in PubChem BioAssay (NCI).
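The concentration for 50% growth inhibition is given as GI50. TGI denotes the concentration required for complete inhibition of growth.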

Experiments:
Assay in all cases: NCI-60 cell line screen, 384-well format
NCI-H322M lung = system: NCI-H322M lung
OVCAR-3 ovarian = system: OVCAR-3 ovarian
UACC-62 melanoma = system: UACC-62 melanoma
SF-268 CNS = system: SF-268 CNS
SN12C renal = system: SN12C renal
HCT-15 colon = system: HCT-15 colon
HS 578T breast = system: HS 578T breast
ACHN renal = system: ACHN renal
SF-295 CNS = system: SF-295 CNS
M14 melanoma = system: M14 melanoma
U251 glioblastoma = system: U251 glioblastoma
SR leukemia = system: SR leukemia
UO-31 renal = system: UO-31 renal
SK-MEL-2 melanoma = system: SK-MEL-2 melanoma
SNB-19 CNS = system: SNB-19 CNS
TK-10 renal = system: TK-10 renal
MALME-3M melanoma = system: MALME-3M melanoma
KM12 colon = system: KM12 colon
PC-3 prostate = system: PC-3 prostate
K-562 leukemia = system: K-562 leukemia
UACC-257 melanoma = system: UACC-257 melanoma
NCI-H460 NSCLC = system: NCI-H460 NSCLC
IGROV1 ovarian = system: IGROV1 ovarian
MCF7 breast = system: MCF7 breast
COLO 205 colon = system: COLO 205 colon
HCT-116 colon = system: HCT-116 colon
T-47D breast = system: T-47D breast
NCI-H522 lung = system: NCI-H522 lung
786-0 renal = system: 786-0 renal
OVCAR-8 ovarian = system: OVCAR-8 ovarian
CAKI-1 renal = system: CAKI-1 renal
SK-MEL-5 melanoma = system: SK-MEL-5 melanoma
OVCAR-4 ovarian = system: OVCAR-4 ovarian
MDA-MB-435 melanoma = system: MDA-MB-435 melanoma
SK-MEL-28 melanoma = system: SK-MEL-28 melanoma
DU-145 prostate = system: DU-145 prostate
EKVX NSCLC = system: EKVX NSCLC
A549 NSCLC = system: A549 NSCLC
OVCAR-5 ovarian = system: OVCAR-5 ovarian
SK-OV-3 ovarian = system: SK-OV-3 ovarian
NCI-H226 lung = system: NCI-H226 lung
MOLT-4 leukemia = system: MOLT-4 leukemia
MDA-MB-468 breast = system: MDA-MB-468 breast
A498 renal = system: A498 renal
SF-539 CNS = system: SF-539 CNS
SW-620 colon = system: SW-620 colon
HOP-92 NSCLC = system: HOP-92 NSCLC
NCI-H23 lung = system: NCI-H23 lung
HT29 colon = system: HT29 colon
HL-60(TB) leukemia = system: HL-60(TB) leukemia
SNB-75 CNS = system: SNB-75 CNS
RXF 393 renal = system: RXF 393 renal
HOP-62 NSCLC = system: HOP-62 NSCLC
MDA-MB-231 breast = system: MDA-MB-231 breast

In the case of `C[C@@H](COCCC(=O)N1CCN(c2ncc(C(F)(F)F)cn2)CC1)Nc1cn[nH]c(=O)c1C(F)(F)F`, the GI50 (NCI-H322M lung) is reported as > 100 µM, the TGI (NCI-H322M lung) is reported as > 100 µM and the GI50 (OVCAR-3 ovarian) is reported as 35.5 µM. For the same molecule, the TGI (OVCAR-3 ovarian) was > 100 µM, the GI50 (UACC-62 melanoma) was 32.3 µM and the TGI (UACC-62 melanoma) was > 100 µM. The GI50 (SF-268 CNS) was 10.1 µM, the TGI (SF-268 CNS) was 73.1 µM and the GI50 (SN12C renal) was 5.17 µM. The TGI (SN12C renal) was 51.9 µM, the GI50 (HCT-15 colon) was 77.9 µM and the TGI (HCT-15 colon) was > 100 µM. For the same molecule, the GI50 (HS 578T breast) was 1.09 µM, the TGI (HS 578T breast) was > 100 µM and the GI50 (ACHN renal) was 24 µM. The TGI (ACHN renal) was > 100 µM, the GI50 (SF-295 CNS) was 6.19 µM and the TGI (SF-295 CNS) was 33.9 µM. For the same molecule, the GI50 (M14 melanoma) was 46.8 µM, the TGI (M14 melanoma) was > 100 µM and the GI50 (U251 glioblastoma) was 11.6 µM. It also gave a TGI (U251 glioblastoma) of 73.7 µM, a GI50 (SR leukemia) of 1.31 µM and a TGI (SR leukemia) of 2.67 µM. The GI50 (UO-31 renal) was 22.4 µM, the TGI (UO-31 renal) was > 100 µM and the GI50 (SK-MEL-2 melanoma) was > 100 µM. For the same molecule, the TGI (SK-MEL-2 melanoma) was > 100 µM, the GI50 (SNB-19 CNS) was 48 µM and the TGI (SNB-19 CNS) was > 100 µM. The GI50 (TK-10 renal) was > 100 µM, the TGI (TK-10 renal) was > 100 µM and the GI50 (MALME-3M melanoma) was > 100 µM. For the same molecule, the TGI (MALME-3M melanoma) was > 100 µM, the GI50 (KM12 colon) was 3.66 µM and the TGI (KM12 colon) was 82.7 µM. The GI50 (PC-3 prostate) was 62.5 µM, the TGI (PC-3 prostate) was > 100 µM and the GI50 (K-562 leukemia) was 10 µM. The TGI (K-562 leukemia) was > 100 µM, the GI50 (UACC-257 melanoma) was 60.4 µM and the TGI (UACC-257 melanoma) was > 100 µM. For the same molecule, the GI50 (NCI-H460 NSCLC) was 16.1 µM, the TGI (NCI-H460 NSCLC) was > 100 µM and the GI50 (IGROV1 ovarian) was 69.1 µM. For the same molecule, the TGI (IGROV1 ovarian) was > 100 µM, the GI50 (MCF7 breast) was 14.5 µM and the TGI (MCF7 breast) was > 100 µM. For the same molecule, the GI50 (COLO 205 colon) was > 100 µM, the TGI (COLO 205 colon) was > 100 µM and the GI50 (HCT-116 colon) was 8.64 µM. For the same molecule, the TGI (HCT-116 colon) was > 100 µM, the GI50 (T-47D breast) was 24.2 µM and the TGI (T-47D breast) was > 100 µM. For the same molecule, the GI50 (NCI-H522 lung) was 31.8 µM, the TGI (NCI-H522 lung) was > 100 µM and the GI50 ([…]-0 renal) was 41.5 µM. The TGI (786-0 renal) was > 100 µM, the GI50 (OVCAR-8 ovarian) was 14.7 µM and the TGI (OVCAR-8 ovarian) was > 100 µM. The GI50 (CAKI-1 renal) was 25.7 µM, the TGI (CAKI-1 renal) was > 100 µM and the GI50 (SK-MEL-5 melanoma) was 48.5 µM. For the same molecule, the TGI (SK-MEL-5 melanoma) was > 100 µM, the GI50 (OVCAR-4 ovarian) was > 100 µM and the TGI (OVCAR-4 ovarian) was > 100 µM. The GI50 (MDA-MB-435 melanoma) was > 100 µM, the TGI (MDA-MB-435 melanoma) was > 100 µM and the GI50 (SK-MEL-28 melanoma) was > 100 µM. The TGI (SK-MEL-28 melanoma) was > 100 µM, the GI50 (DU-145 prostate) was 12.7 µM and the TGI (DU-145 prostate) was > 100 µM. For the same molecule, the GI50 (EKVX NSCLC) was 63.6 µM, the TGI (EKVX NSCLC) was > 100 µM and the GI50 (A549 NSCLC) was 41 µM. For the same molecule, the TGI (A549 NSCLC) was > 100 µM, the GI50 (OVCAR-5 ovarian) was > 100 µM and the TGI (OVCAR-5 ovarian) was > 100 µM. The GI50 (SK-OV-3 ovarian) was 13.9 µM, the TGI (SK-OV-3 ovarian) was 79.8 µM and the GI50 (NCI-H226 lung) was 18.6 µM. For the same molecule, the TGI (NCI-H226 lung) was > 100 µM, the GI50 (MOLT-4 leukemia) was 1.53 µM and the TGI (MOLT-4 leukemia) was 2.97 µM. For the same molecule, the GI50 (MDA-MB-468 breast) was 3.72 µM, the TGI (MDA-MB-468 breast) was 23.5 µM and the GI50 (A498 renal) was > 100 µM. The TGI (A498 renal) was > 100 µM, the GI50 (SF-539 CNS) was 3.28 µM and the TGI (SF-539 CNS) was 27.4 µM. The GI50 (SW-620 colon) was 0.187 µM, the TGI (SW-620 colon) was > 100 µM and the GI50 (HOP-92 NSCLC) was 41.2 µM. The TGI (HOP-92 NSCLC) was > 100 µM, the GI50 (NCI-H23 lung) was 9.26 µM and the TGI (NCI-H23 lung) was 52.1 µM. For the same molecule, the GI50 (HT29 colon) was > 100 µM, the TGI (HT29 colon) was > 100 µM and the GI50 (HL-60(TB) leukemia) was 2.49 µM. For the same molecule, the TGI (HL-60(TB) leukemia) was 16 µM, the GI50 (SNB-75 CNS) was 12.4 µM and the TGI (SNB-75 CNS) was > 100 µM. The TGI (RXF 393 renal) was 20.3 µM, the GI50 (HOP-62 NSCLC) was 4.01 µM and the TGI (HOP-62 NSCLC) was 22.5 µM. The GI50 (MDA-MB-231 breast) was > 100 µM and the TGI (MDA-MB-231 breast) was > 100 µM.
